Laboratory results: US20110034714A1, “METAL COMPLEX COMPOUND, CANCER THERAPEUTIC AGENT COMPOSITION CONTAINING THE METAL COMPLEX COMPOUND AS AN ACTIVE INGREDIENT, AND INTERMEDIATE FOR THE METAL COMPLEX COMPOUND” (priority 2007, published 2011)

Legend:
Type in all cases: in vivo
[1] = tested on: human tumor SC-6-JCK; experiment: Anti-tumor action in nude mice transplanted with human tumor SC-6-JCK; conditions: SC-6-JCK tumor-bearing nude mice, 7.0 mg and 10.0 mg/kg, tail vein, 3 times at 4 days' intervals
Description: (§1) Using nude mice transplanted with human tumors SC-6-JCK and Lu-24, the anti-tumor action of the substance having the structure below (Compound 44), among the compounds of the present invention, was investigated. Each of SC-6-JCK and Lu-24 was subcutaneously implanted in nude mice, and, when the tumor volumes reached to 100 to 300 mm^3, 7.0 mg and 10.0 mg/kg of the present test substance were respectively administered to the SC-6-JCK tumor-bearing mice, and 10.0 mg and 12.0 mg/kg of the present test substance were respectively administered to the Lu-24 tumor-bearing mice, from the tail vein 3 times intermittently at 4 days' intervals.

[2] = tested on: human tumor Lu-24; experiment: Anti-tumor action in nude mice transplanted with human tumor Lu-24; conditions: Lu-24 tumor-bearing nude mice, 10.0 mg and 12.0 mg/kg, tail vein, 3 times at 4 days' intervals
Description: as §1

[3] = BUN (blood urea nitrogen) as an index of nephrotoxicity in tumor-bearing nude mice; conditions: 4 days after completion of the administration; SC-6-JCK and Lu-24 tumor-bearing nude mice
Description: as §1

CCOP1(=O)CP(=O)(OCC)[O][Pt]([NH2])([NH2])[O]1 (stereo not drawn) [Compound 44]
suppression of the tumor volume [1]: suppression of the tumor volume was observed in a dose-dependent manner
suppression of the tumor volume [2]: suppression of the tumor volume was observed in a dose-dependent manner
BUN (blood urea nitrogen) as an index of nephrotoxicity [3]: an increase of the BUN value was not observed
